# Data as given in publication PMC4706618, “Comparison of bactericidal and cytotoxic activities of trichogin analogs” (Data in Brief, 2015).
# Read-outs that look alike come from different tables or passages of the source. Non-standard residues stand in square brackets, D forms with d. Residues, ends and D or L forms follow the SMILES beside them. *: point of attachment. Leu(ol) = CC(C)C[C@H](N)CO; Octanoyl = CCCCCCCC(=O)*; Aib = CC(C)(N)C(=O)O
# Experiments:
# [1] = tested on: S. aureus, ATCC BAA-44 (methicillin-resistant strain); assay type: cell-based, Staphylococcus aureus
# Description: (§1) E. coli ATCC 25922, the methicillin-resistant strain of S. aureus, ATCC BAA-44, P. aeruginosa ATCC 25668 and S. epidermidis ATCC 700565 was a kind gift of Prof. Elena Reddi (Dept. of Biology, University of Padova, Italy). Cultures were maintained in Luria Bertani (LB) agar. MICs (Minimal inhibitory concentrations) of the peptides were determined using the broth microdilution method. Two-fold serial dilutions of each peptide, from 1 to 64 μM, were prepared in LB and 50 μl per well were arranged in sterile 96-well plates (Falcon). Then, an aliquot of bacterial cell suspension was added to each well, at a final concentration of 5×10^5 CFU/ml.
# [2] = tested on: S. epidermidis ATCC 700565; assay type: cell-based, Staphylococcus epidermidis
# Description: as §1
# P. aeruginosa ATCC 25668 = assay type: cell-based, Pseudomonas aeruginosa
# Description: as §1
# E. coli ATCC 25922 = assay type: cell-based, Escherichia coli
# Description: as §1
# [3] = tested on: Gram^− and Gram^+ bacteria; assay: Antibacterial activity, all strains taken together; assay type: cell-based; settings: additional U at position 6 or U1 replaced with L; in words
# Description: as §1
# [4] = tested on: human cells (lymphocytes, PMNs, monocytes, HL60, HeLa, A431, A549, CCD34Lu); assay: Cytotoxicity on human cells, MTS reduction and LDH release; assay type: cell-based; settings: 24 h, MTS/LDH EC50, all tested cells; in words
# Description: (§2) To monitor the possible differential cytocidal effect of trichogin and its analogs on human cells (healthy and cancer cells, non-leukocytes and leukocytes), we incubated the peptides with (i) primary human leukocytes (lymphocytes, PMNs and monocytes), freshly isolated from blood of healthy donors (ii) the monocytes-like HL60 cell line from human myeloid leukemia, and (iii) three tumor-derived non-leukocyte cells lines: HeLa ([…]), A431 (human epidermoid carcinoma) and A549 (human lung carcinoma) and the in vitro stabilized line CCD34Lu (from human normal lung).
# (§3) HeLa, A431 and CCD34-Lu cells were maintained in DMEM medium (Gibco), A549 in F12 medium (Gibco) and HL60 in RPMI medium (Gibco), supplemented with 10% FCS (Euroclone) and antibiotics (penicillin and streptomycin, 100 U/ml, Invitrogen) at 37 °C in a humidified atmosphere containing 5% (v/v) CO2; cells were split every 2–3 days. Human monocytes, polymorphonuclear leukocytes (PMNs) and lymphocytes were purified from buffy coats of healthy donors, kindly provided by the Centro Immunotrasfusionale, Hospital of Padova. Briefly, for monocyte purification, peripheral blood mononuclear cells (PBMC) were isolated from buffy coats of healthy donors by density gradient centrifugation on Ficoll-Paque Plus (GE Health care), which density is optimized for the isolation of mononuclear cells. Separate monocyte and T-cell fractions were obtained from PBMCs by Percoll density gradient centrifugation (GE Health care); residual lymphocytes were removed by incubation in 2% fetal calf serum (FCS) RPMI at 37 °C and subsequently washed to eliminate non adherent cells. Unless otherwise specified, cells were kept at 37 °C in a humidified atmosphere containing 5% (v/v) CO2 in RPMI-1640 supplemented with 10% FCS. For PMNs purification, the pellet of cells obtained after the centrifugation on Ficoll gradient was subjected to dextran erythrocytes precipitation; residual erythrocytes were removed by hypotonic lysis in 155 mM NH4Cl, 10 mM KHCO3, and […] Na2EDTA at pH 7.4 and cells were cultured in RPMI medium, supplemented with 10% FCS. For lymphocytes preparation, buffy coats were incubated with 50 μl/ml of Rosette Sep® Human T Cell Enrichment Cocktail (StemCell Technologies). Blood was then centrifuged over a Ficoll gradient and cells were cultured in RPMI medium, supplemented with 10% FCS.
# (§4) Twenty-four hours before the experiment, A431, HeLa, A549 and CC34-Lu cells were detached by means of trypsin treatment (Gibco), counted and seeded onto a 96 wells/plate (8×10^3 cells/well, Falcon). After purification, monocytes were seeded onto a 96 wells/plate (2×10^6/well) and left to adhere to the plastic; then cells were immediately treated with stimuli. PMNs and lymphocytes (2×10^6 cells/well) and HL60 cells (40×10^3) were seeded onto cell plates and subsequently treated. Different peptides were diluted in culture medium (from 20 μM to 1 μM) and added to the cells. As a […] control cells were treated with medium without stimuli. Twenty-four hours after treatment, the cell supernatant was collected for subsequent assay (LDH assay) and cells were tested using a CellTiter 96® AQueous One Solution Reagent (Promega). Plates were read with an ELISA reader (Amersham Biosciences) at 492 nm. Data were expressed as % of absorbance value compared to untreated cells (assumed as 100% viable). Alternatively, the EC50 (the concentration of drug where 50% of cells died) was calculated for each peptide and each kind of tested cell.
# (§5) 50 μl of the cell supernatant was tested with a CytoTox 96® Non-Radioactive Cytotoxicity Assay kit (Promega). EC50 (the concentration of drug that induced the lysis of 50% of the total cell number) was calculated for each peptide and each kind of tested cell.
# [5] = as above; assay type: cell-based; settings: human, from MTS and LDH EC50 values, compared with trichogin, all cell models, read-out: reduction of cytocidal effect / cell toxicity (% inhibition)
# Description: as §2, §3, §4, §5
# [6] = after 24 h at 37 °C, broth microdilution in LB, 5×10^5 CFU/ml, ±SE, N≥4, peptide dose range 0–64 µM
"MIC S. aureus ([1]; ATCC BAA-44, 24 h) [µM]","MIC S. epidermis ([2]; ATCC 700565, 24 h) [µM]",SMILES,"MIC S. aureus [1, 6] [µM]","MIC S. epidermis [2, 6] [µM]",MIC P. aeruginosa (P. aeruginosa ATCC 25668; [6]) [µM],MIC E. coli (E. coli ATCC 25922; [6]) [µM],antibacterial activity compared with the K-containing analogs [3],cytotoxicity compared with trichogin or the corresponding analog [4],"MIC P. aeruginosa (P. aeruginosa ATCC 25668; ATCC 25668, 24 h) [µM]","MIC E. coli (E. coli ATCC 25922; ATCC 25922, 24 h) [µM]",inhibition at 24 h [5] [%],"change of anti S. aureus activity compared with trichogin ([1]; MIC after 24 h, in words)"
,,CCCCCCCC(=O)N[C@@H](CC(C)C)C(=O)NCC(=O)N[C@@H](CC(C)C)C(=O)NC(C)(C)C(=O)NCC(=O)NCC(=O)N[C@@H](CC(C)C)C(=O)NC(C)(C)C(=O)N[C@@H](CCCCN)C(=O)N[C@H](C(=O)N[C@H](CO)CC(C)C)[C@@H](C)CC [L1K9] (Octanoyl-LGL[Aib]GGL[Aib]KI[Leu(ol)]),4.7 ± 1.6,4.6 ± 1.5,>64,41.1 ± 15.6,failed to increase the antibacterial activity,not significantly different,,,,
3.3 ± 1.3,5 ± 2.4,CCCCCCCC(=O)NC(C)(C)C(=O)N[C@@H](CCCCN)C(=O)N[C@@H](CC(C)C)C(=O)NC(C)(C)C(=O)N[C@@H](CCCCN)C(=O)NCC(=O)N[C@@H](CC(C)C)C(=O)NC(C)(C)C(=O)NCC(=O)N[C@H](C(=O)N[C@H](CO)CC(C)C)[C@@H](C)CC [K2K5] (Octanoyl-[Aib]KL[Aib]KGL[Aib]GI[Leu(ol)]),,,,,,,16 ± 5,13.7 ± 3.9,,
4.3 ± 1.8,4 ± 0.9,CCCCCCCC(=O)NC(C)(C)C(=O)N[C@@H](CCCCN)C(=O)N[C@@H](CC(C)C)C(=O)NC(C)(C)C(=O)N[C@@H](CCCCN)C(=O)NCC(=O)N[C@@H](CC(C)C)C(=O)NC(C)(C)C(=O)N[C@@H](CCCCN)C(=O)N[C@H](C(=O)N[C@H](CO)CC(C)C)[C@@H](C)CC [K2K5K9] (Octanoyl-[Aib]KL[Aib]KGL[Aib]KI[Leu(ol)]),,,,,,,13.3 ± 4.1,14.9 ± 8.6,,
,,CCCCCCCC(=O)NC(C)(C)C(=O)NCC(=O)N[C@@H](CC(C)C)C(=O)NC(C)(C)C(=O)N[C@@H](CCCCN)C(=O)NCC(=O)N[C@@H](CC(C)C)C(=O)NC(C)(C)C(=O)NCC(=O)N[C@H](C(=O)N[C@H](CO)CC(C)C)[C@@H](C)CC [K5] (Octanoyl-[Aib]GL[Aib]KGL[Aib]GI[Leu(ol)]),1 ± 0,2 ± 0,,,,,>64,8 ± 2,,
32 ± 0,>64,CCCCCCCC(=O)N[C@@H](CC(C)C)C(=O)NCC(=O)N[C@@H](CC(C)C)C(=O)NC(C)(C)C(=O)NCC(=O)NCC(=O)N[C@@H](CC(C)C)C(=O)N[C@@H](CC(C)C)C(=O)NCC(=O)N[C@H](C(=O)N[C@H](CO)CC(C)C)[C@@H](C)CC [L1L8] (Octanoyl-LGL[Aib]GGLLGI[Leu(ol)]),,,,,,,>64,>64,,
,,CCCCCCCC(=O)N[C@@H](CC(C)C)C(=O)NCC(=O)N[C@@H](CC(C)C)C(=O)N[C@@H](CC(C)C)C(=O)NCC(=O)NCC(=O)N[C@@H](CC(C)C)C(=O)N[C@@H](CC(C)C)C(=O)NCC(=O)N[C@H](C(=O)N[C@H](CO)CC(C)C)[C@@H](C)CC [L1L4L8] (Octanoyl-LGLLGGLLGI[Leu(ol)]),,,,,,,,,50 to 70,
,,CCCCCCCC(=O)NC(C)(C)C(=O)NCC(=O)N[C@@H](CC(C)C)C(=O)N[C@@H](CC(C)C)C(=O)NCC(=O)NCC(=O)N[C@@H](CC(C)C)C(=O)NC(C)(C)C(=O)NCC(=O)N[C@H](C(=O)N[C@H](CO)CC(C)C)[C@@H](C)CC [L4] (Octanoyl-[Aib]GLLGGL[Aib]GI[Leu(ol)]),>64,>64,>64,>64,,,,,50 to 70,no such increase
2.8 ± 1.1,3.2 ± 2.6,CCCCCCCC(=O)NC(C)(C)C(=O)N[C@@H](CCCCN)C(=O)N[C@@H](CC(C)C)C(=O)NC(C)(C)C(=O)NCC(=O)N[C@@H](CCCCN)C(=O)N[C@@H](CC(C)C)C(=O)NC(C)(C)C(=O)NCC(=O)N[C@H](C(=O)N[C@H](CO)CC(C)C)[C@@H](C)CC [K2K6] (Octanoyl-[Aib]KL[Aib]GKL[Aib]GI[Leu(ol)]),,,,,,,17.6 ± 8.8,12.6 ± 4.3,,

SMILES,"MIC S. aureus ([1]; ATCC BAA-44, 24 h) [µM]","MIC S. epidermis ([2]; ATCC 700565, 24 h) [µM]","MIC S. aureus [1, 6] [µM]","MIC S. epidermis [2, 6] [µM]",MIC P. aeruginosa (P. aeruginosa ATCC 25668; [6]) [µM],MIC E. coli (E. coli ATCC 25922; [6]) [µM],antibacterial activity compared with the K-containing analogs [3],cytotoxicity compared with trichogin or the corresponding analog [4],"MIC P. aeruginosa (P. aeruginosa ATCC 25668; ATCC 25668, 24 h) [µM]","MIC E. coli (E. coli ATCC 25922; ATCC 25922, 24 h) [µM]",inhibition at 24 h [5] [%],"change of anti S. aureus activity compared with trichogin ([1]; MIC after 24 h, in words)"
CCCCCCCC(=O)NC(C)(C)C(=O)NCC(=O)N[C@@H](CC(C)C)C(=O)NC(C)(C)C(=O)N[C@@H](CCCCN)C(=O)N[C@@H](CCCCN)C(=O)N[C@@H](CC(C)C)C(=O)NC(C)(C)C(=O)NCC(=O)N[C@H](C(=O)N[C@H](CO)CC(C)C)[C@@H](C)CC [K5K6],4 ± 0,4 ± 1,,,,,,,16 ± 0,16 ± 0,50 to 60,
CCCCCCCC(=O)NC(C)(C)C(=O)N[C@@H](CCCCN)C(=O)N[C@@H](CC(C)C)C(=O)NC(C)(C)C(=O)N[C@@H](CCCCN)C(=O)NC(C)(C)C(=O)N[C@@H](CC(C)C)C(=O)NC(C)(C)C(=O)N[C@@H](CCCCN)C(=O)N[C@H](C(=O)N[C@H](CO)CC(C)C)[C@@H](C)CC [K2K5K9U6] (Octanoyl-[Aib]KL[Aib]K[Aib]L[Aib]KI[Leu(ol)]),4 ± 0,8 ± 0,,,,,failed to increase the antibacterial activity,increased cytotoxicity,8 ± 0,8 ± 0,,
CCCCCCCC(=O)N[C@@H](CC(C)C)C(=O)N[C@@H](CCCCN)C(=O)N[C@@H](CC(C)C)C(=O)NC(C)(C)C(=O)NCC(=O)NCC(=O)N[C@@H](CC(C)C)C(=O)NC(C)(C)C(=O)NCC(=O)N[C@H](C(=O)N[C@H](CO)CC(C)C)[C@@H](C)CC [L1K2] (Octanoyl-LKL[Aib]GGL[Aib]GI[Leu(ol)]),4.6 ± 1.5,4.7 ± 1.6,,,,,failed to increase the antibacterial activity,not significantly different,>64,22.9 ± 8.6,,
